Assay results published in patent publication US10479792B2, “Compounds” (GlaxoSmithKline Intellectual Property Development Limited, priority 2015, dated 2019).

Legend:
RnH9c2 cells = assay: Trypanosoma cruzi intracellular assay (Assay 2), host cell cytotoxicity; format: cell-based; conditions: rat, H9C2 cardiomyocytes infected with Trypanosoma cruzi, 72 h incubation, read-out: cytotoxicity against RnH9c2 cells, pEC50 (converted)
Description: (§1) Compounds were dispensed into black 384-well assay plates (Greiner) by acoustic dispensing (LabCyte ECHO). For potency determinations, eleven-point, one in three dilution curves were generated, with a top concentration of 50 μM. H9C2 rat cardiomyocytes cells were dispensed in T225 tissue culture flasks and after 4 hours they were infected during 18 hours with T. cruzi trypomastigotes in the same T225 tissue culture flasks at a multiplicity of infection of 1. Next, any remaining free trypomastigotes were washed away with PBS and the infected H9C2 cells were harvested by trypsinisation. The infected H9C2 cells were then plated into 384-well plates containing the compounds to be tested, at 2500 cells per well in DMEM media with 2% FBS, 1% Penicillin/Streptomicin, 2 mM L-Glutamine, 1 mM Na Pyruvate and 25 mM HEPES. After 72 h incubation at 37° C. in presence of 5% CO2, the plates were fixed and stained with 4% formaldehyde and 2 μM Draq5 for 3 hours at room temperature. The plates were imaged on a Perkin Elmer Opera high-content imaging system using a 20× air objective. Images were analyzed using the Acapella building blocks system (Perkin Elmer). The image analysis algorithm first identified the H9C2 nuclei followed by demarcation of the cytoplasm and identification of intracellular amastigotes. This algorithm reported mean number of parasites per H9C2 cell, the percentage of infected H9C2 cells and the total number of H9C2 cells.

THP-1 cells = assay: Leishmania donovani intracellular assay (Assay 5), THP-1 cytotoxicity; format: cell-based; conditions: human, 96 h incubation, read-out: cytotoxicity against THP-1 cells, pEC50 (converted)
Description: Assay 5. Leishmania donovani Intracellular Assay
Compounds were dispensed into black 384-well assay plates (Greiner) by acoustic dispensing (LabCyte ECHO). For potency determinations, eleven-point, one in three dilution curves were generated, with a top concentration of 50 μM. THP-1 human monocytes cells were dispensed in T225 tissue culture flasks and differentiated using 30 nM of PMA, after 24 hours they were infected overnight using Leishmania donovani expressing Green Fluorescent Protein (eGFP) amastigotes in the same T225 tissue culture flasks at a multiplicity of infection of 10. Next, any remaining free amastigotes were washed away with PBS and the infected THP-1 cells were harvested by trypsinisation. The infected cells were then plated into 384-well plates containing the compounds to be tested, at 3000 cells per well in RPMI media with 2% FBS and 25 mM Sodium bicarbonate. After 96 h incubation at 37° C. in presence of 5% CO2, the plates were fixed with 4% formaldehyde for 30 minutes, washed with PBS and stained with 0.1 mg/mL of DAPI for 30 minutes and washed again with PBS. The plates were imaged on a Perkin Elmer Opera high-content imaging system using a 20× air objective with two expositions, one for DAPI stain and other for eGFP. Images were analysed using the Acapella building blocks system (Perkin Elmer). The image analysis algorithm first identified the THP-1 nuclei followed by demarcation of the cytoplasm and identification of intracellular amastigotes. This algorithm reported mean number of parasites per THP-1 cell, the percentage of infected THP-1 cells and the total number of THP-1 cells.

[1] = Solubility assay, ChemiLuminescent Nitrogen Detection (CLND) (Assay 4); format: physicochemical; conditions: phosphate buffered saline (PBS) pH 7.4, aqueous buffer, kinetic from dmso stock, PBS pH 7.4, from 10 mM DMSO stock, 1 h at room temperature
Description: Assay 4. Solubility Assay—ChemiLuminescent Nitrogen Detection (CLND) I. Compounds A 10 mM DMSO stock solution of the compound was prepared. Solvents and Buffers Organic solvents of HPLC grade were used. Ultra pure water (Milli-Q grade) was used. Buffers were prepared with ultra pure water and filtered using 0.45μ cameo filters. Aqueous Buffer Solution: Phosphate Buffer Saline (PBS) @ pH 7.4 was prepared from Sigma dry powder packs, P-3813. Each one was diluted to 1 liter with deionised water. The pH was checked before the solution was used II. Procedures. • a) DMSO concentration was measured. DMSO blanks and ondansetron and caffeine standards were added to the plate (column 12, A, B, C, & D for the blanks and E, F, G, & H for the standards). Plates were covered with foil. When the UV and CLND detectors baselines appeared to be stable, the CLND was zeroed. • b) Once DMSO concentration measurements were complete, a filtration plate was prepared from each parent plate by diluting 5 μl of the 10 mM DMSO stock solution to […] with pH7.4 PBS. • c) After the plates were prepared, they were covered with a plate lid and left to incubate for 1 h at room temperature. • d) Sample was filtered using MILLIPORE MultiScreen Solubility (MSSLBPC10) Filtration Plates, to NUNC V well plates. […]

Trypanosoma brucei = Trypanosoma brucei cell growth inhibition assay (Assay 3); format: cell-based, T. b. brucei, BSF427, VSG118; conditions: 69 h + 4 h resazurin, read-out: pEC50 value against Trypanosoma brucei (converted)
Description: Assay 3. Trypanosoma brucei Cell Growth Inhibition Assay
Measurement of the ability of the compounds to inhibit trypanosome (T. b. brucei, BSF427, VSG118) cell growth was performed using a modification of the cell viability assay previously described by Raz et al. (Raz B.; Iten M.; Grether-Buhler Y.; Kaminski R.; Brun R. The Alamar Blue assay to determine drug sensitivity of African trypanosomes (T. b. rhodesiense and T. b. gambiense) in vitro. Acta Trop. 1997, 68, 139-147). Compounds were dissolved in DMSO at a top concentration of 10 mM and serially diluted in half log steps to achieve a range of final assay concentrations of 50 μM to 0.5 nM. Compound at each concentration (200-fold final) was added to clear 96-well tissue culture plates in a volume of 1 μL. […] Plates were then read on a BioTek flx800 fluorescent plate reader, and percentage inhibition was compared to the maximum and minimum assay controls. Concentration effect curves were fitted using nonlinear regression using XLFit 4.2 and EC50 values determined.

Trypanosoma cruzi = Trypanosoma cruzi intracellular assay (Assay 2); format: cell-based; conditions: infected H9C2 rat cardiomyocytes, 72 h incubation, read-out: pEC50 value against Trypanosoma cruzi (converted)
Description: as §1

solubility at 1 h [1]: > 444 µM | EC50 (Trypanosoma brucei): 10 nM
SMILES: O=C(Nc1ccc(F)c(-c2ccn3c(N4CCOCC4)cnc3n2)c1)N1CCCC1 [Example 4, N-(4-fluoro-3-(3-morpholinoimidazo[1,2-a]pyrimidin-7-yl)phenyl)pyrrolidine-1-carboxamide]
EC50 at 72 h (RnH9c2 cells): > 50100 nM | EC50 at 96 h (THP-1 cells): > 50100 nM | EC50 (Trypanosoma cruzi): 39.8 nM
